Source: ChEMBL document CHEMBL3351221, “Synthetic derivatives of aromatic abietane diterpenoids and their biological activities” (Eur J Med Chem, 2014)
pIC50: −log10 of the molar value. ≈ marks a conversion by molar mass, not a printed value.

How the values were obtained:
Rattus norvegicus [1] = assay: Antiulcer activity in rat assessed as inhibition of pepsin activity at 100 mg/kg; type: functional
Fusarium graminearum = assay: Antimicrobial activity against Fusarium graminearum assessed as inhibition of microbial growth at 50 ug/ml; type: functional
Fusarium oxysporum = assay: Antimicrobial activity against Fusarium oxysporum assessed as inhibition of microbial growth at 50 ug/ml; type: functional
[2] = tested on: Botryosphaeria berengeriana; assay: Antimicrobial activity against Physalospora pyricola assessed as inhibition of microbial growth at 50 ug/ml; type: functional
Staphylococcus aureus = assay: Antimicrobial activity against Staphylococcus aureus; type: functional
Bacillus subtilis = assay: Antimicrobial activity against Bacillus subtilis; type: functional
Escherichia coli = assay: Antimicrobial activity against Escherichia coli; type: functional
Pseudomonas fluorescens = assay: Antimicrobial activity against Pseudomonas fluorescens; type: functional
SMMC-7721 [3] = assay: Cytotoxicity against human SMMC7721 cells; type: functional, cell-based
HepG2 = assay: Cytotoxicity against human HepG2 cells; type: functional, cell-based
[4] = Cytotoxicity against human HL60 cells; type: functional, cell-based; conditions: HL-60
A549 = assay: Cytotoxicity against human A549 cells; type: functional, cell-based
[5] = Cytotoxicity against human AZ-521 cells; type: functional, cell-based
[6] = Cytotoxicity against human SKBR3 cells; type: functional, cell-based; conditions: SK-BR-3
[7] = Cytotoxicity against human SKMES1 cells; type: functional, cell-based; conditions: SK-MES-1
SMMC-7721 [8] = assay: Cytotoxicity against human SMMC7721 cells assessed as growth inhibition at 0.1 uM; type: functional
SMMC-7721 [9] = assay: Cytotoxicity against human SMMC7721 cells assessed as growth inhibition at 0.1 uM after 72 hrs; type: functional; conditions: SMMC-7721, 72 h
[10] = Cytotoxicity against human Hey-1B cells; type: functional, cell-based
[11] = Cytotoxicity against human PC3 cells; type: functional, cell-based; conditions: PC-3
Androgen receptor = Androgen receptor (Homo sapiens, UniProt P10275); assay: Binding affinity to androgen receptor (unknown origin)
EJ = assay: Cytotoxicity against human EJ cells; type: functional, cell-based; conditions: pooled result: one value given for 4 cell lines, strains, targets or settings
[12] = biological target: Fibroblast growth factor receptor 1 (Homo sapiens, UniProt P11362); assay: Inhibition of FGFR1 (unknown origin)
[13] = Antioxidant activity assessed as DPPH radical scavenging activity; type: physicochemical
superoxide anion radical = assay: Antioxidant activity assessed as superoxide anion radical scavenging activity relative to untreated control
Leishmania infantum = assay: Antimicrobial activity against Leishmania infantum; type: functional, organism-based
Leishmania braziliensis = assay: Antimicrobial activity against Leishmania braziliensis; type: functional, organism-based
Rattus norvegicus [14] = assay: Antiulcer activity in rat assessed as inhibition of secretion at 30 mg/kg, ip; type: functional; conditions: route intraperitoneal
Mus musculus = assay: Gastroprotective activity in mouse assessed as reduction in HCl/EtOH-induced gastric lesions at 100 mg/kg; type: functional; conditions: Stomach

Fibroblast growth factor receptor 1, sequence (P11362 whole entry): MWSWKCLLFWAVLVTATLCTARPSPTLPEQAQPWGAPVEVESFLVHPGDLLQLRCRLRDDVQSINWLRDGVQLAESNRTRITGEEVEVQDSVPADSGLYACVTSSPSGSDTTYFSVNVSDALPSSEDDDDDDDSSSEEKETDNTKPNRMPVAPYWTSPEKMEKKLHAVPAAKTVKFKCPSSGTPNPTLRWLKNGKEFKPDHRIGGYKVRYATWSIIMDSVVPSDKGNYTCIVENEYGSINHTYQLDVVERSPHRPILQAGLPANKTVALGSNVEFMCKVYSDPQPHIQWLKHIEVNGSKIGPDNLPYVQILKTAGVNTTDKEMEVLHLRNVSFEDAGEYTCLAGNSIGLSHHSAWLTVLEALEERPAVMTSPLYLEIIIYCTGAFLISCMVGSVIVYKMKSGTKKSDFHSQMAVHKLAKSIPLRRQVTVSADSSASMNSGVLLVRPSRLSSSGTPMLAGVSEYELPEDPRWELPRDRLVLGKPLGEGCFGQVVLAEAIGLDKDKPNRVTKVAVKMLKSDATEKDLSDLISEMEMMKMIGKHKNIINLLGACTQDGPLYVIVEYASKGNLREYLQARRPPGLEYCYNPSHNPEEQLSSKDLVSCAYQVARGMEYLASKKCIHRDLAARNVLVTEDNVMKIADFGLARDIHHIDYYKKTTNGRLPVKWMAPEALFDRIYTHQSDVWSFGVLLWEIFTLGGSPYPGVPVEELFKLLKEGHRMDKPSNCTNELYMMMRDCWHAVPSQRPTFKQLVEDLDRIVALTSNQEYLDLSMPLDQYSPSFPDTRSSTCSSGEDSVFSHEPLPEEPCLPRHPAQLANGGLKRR
Androgen receptor, sequence (P10275 whole entry): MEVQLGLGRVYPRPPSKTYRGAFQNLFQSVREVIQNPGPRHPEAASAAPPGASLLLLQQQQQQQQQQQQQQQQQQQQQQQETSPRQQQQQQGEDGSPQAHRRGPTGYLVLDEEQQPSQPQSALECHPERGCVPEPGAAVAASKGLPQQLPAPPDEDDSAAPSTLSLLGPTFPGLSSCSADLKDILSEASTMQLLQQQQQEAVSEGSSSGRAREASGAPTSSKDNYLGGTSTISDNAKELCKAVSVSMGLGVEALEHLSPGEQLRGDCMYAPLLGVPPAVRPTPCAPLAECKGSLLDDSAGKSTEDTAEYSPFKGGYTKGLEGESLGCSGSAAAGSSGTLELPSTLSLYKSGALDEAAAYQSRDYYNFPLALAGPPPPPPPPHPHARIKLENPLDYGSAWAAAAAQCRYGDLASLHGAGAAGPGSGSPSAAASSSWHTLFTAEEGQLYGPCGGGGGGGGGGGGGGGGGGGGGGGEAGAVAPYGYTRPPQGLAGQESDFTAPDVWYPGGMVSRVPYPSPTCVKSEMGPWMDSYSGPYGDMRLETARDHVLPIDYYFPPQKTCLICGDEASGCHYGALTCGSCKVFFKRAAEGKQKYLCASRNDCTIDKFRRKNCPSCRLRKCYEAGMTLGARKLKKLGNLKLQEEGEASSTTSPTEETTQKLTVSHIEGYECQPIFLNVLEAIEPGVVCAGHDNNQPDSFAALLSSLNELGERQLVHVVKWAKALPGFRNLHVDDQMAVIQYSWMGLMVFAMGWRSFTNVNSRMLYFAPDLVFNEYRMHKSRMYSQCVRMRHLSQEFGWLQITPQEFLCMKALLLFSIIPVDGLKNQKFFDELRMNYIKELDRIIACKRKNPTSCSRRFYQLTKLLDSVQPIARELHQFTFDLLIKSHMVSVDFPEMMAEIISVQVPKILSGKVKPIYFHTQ

In the case of `CC(C)c1cc2c(cc1S(=O)(=O)O)[C@@]1(C)CCC[C@@](C)(C(=O)O)[C@@H]1CC2`, the inhibition in vivo at 100 mg/kg (Rattus norvegicus [1]; Rattus norvegicus) was 92%.
In the case of `CC(C)c1cc2c(cc1S(=O)(=O)[O-])[C@@]1(C)CCC[C@@](C)(C(=O)[O-])[C@@H]1CC2.[Na+].[Na+]`, the “inhibition (INH)” value (Rattus norvegicus [1]) was 92%.
`CC(C)c1ccc2c(c1)CC[C@H]1[C@](C)(c3nnc4s/c(=C\c5ccc(O)cc5)c(=O)n34)CCC[C@]21C` gave an inhibition at 50 µg/mL (Fusarium graminearum) of 70.9%.
Work on `CC(C)c1ccc2c(c1)CC[C@H]1[C@](C)(c3nnc4s/c(=C\c5ccccc5)c(=O)n34)CCC[C@]21C` yielded an inhibition at 50 µg/mL (Fusarium oxysporum) of 51.9%.
`COc1ccc(/C=c2\sc3nnc([C@]4(C)CCC[C@]5(C)c6ccc(C(C)C)cc6CC[C@@H]45)n3c2=O)cc1` gave an inhibition at 50 µg/mL [2] of 56.8%.
With `CC(C)c1ccc2c(c1)CC[C@H]1[C@](C)(C(=O)N/N=C/c3ccc([N+](=O)[O-])o3)CCC[C@]21C` the MIC (Staphylococcus aureus) was 1.9 µg/mL (≈ 4.34 µM), the MIC (Bacillus subtilis) was 1.9 µg/mL (≈ 4.34 µM) and the MIC (Escherichia coli) was 3.9 µg/mL (≈ 8.91 µM). It also gave an MIC (Pseudomonas fluorescens) of 3.9 µg/mL (≈ 8.91 µM).
With `CC(C)c1ccc2c(c1)CC[C@H]1[C@](C)(C(=O)N/N=C/c3cc(Cl)ccc3O)CCC[C@]21C` the MIC (Escherichia coli) was 3.9 µg/mL (≈ 8.61 µM) and the MIC (Pseudomonas fluorescens) was 3.9 µg/mL (≈ 8.61 µM).
With `CC(C)c1ccc2c(c1)CC[C@H]1[C@](C)(NC(N)=O)CCC[C@]21C` the pIC50 (SMMC-7721 [3]) was 5.06 and the IC50 (HepG2) was 1.21 µg/mL (≈ 3.85 µM).
With `COC(=O)[C@H](Cc1ccc(O)cc1)NC(=O)[C@]1(C)CCC[C@]2(C)c3ccc(C(C)C)cc3CC[C@@H]12` the pIC50 [4] was 5.64, the pIC50 (A549) was 5.15 and the pIC50 [5] was 5.41. It also gave a pIC50 [6] of 5.09.
In the case of `CC(C)c1ccc2c(c1)CC[C@H]1[C@](C)(COC(=O)CCc3cn(-c4ccccc4)nn3)CCC[C@]21C`, the pIC50 [7] was 5.21.
Work on `CC(C)c1ccc2c(c1)CC[C@H]1[C@](C)(CNC(c3ccc(F)cc3)P(=O)(Oc3ccccc3)Oc3ccccc3)CCC[C@]21C` (some centres not stated) yielded an inhibition at 0.1 µM (SMMC-7721 [8]) of 75%.
Compound `CC(C)c1ccc2c(c1)CC[C@H]1[C@](C)(CNC(c3ccc(C(F)(F)F)cc3)P(=O)(Oc3ccccc3)Oc3ccccc3)CCC[C@]21C` (some centres not stated) has an inhibition at 0.1 µM (SMMC-7721 [8]) of 79%.
`CCOP(=O)(OCC)C(NC[C@]1(C)CCC[C@]2(C)c3ccc(C(C)C)cc3CC[C@@H]12)c1ccc([N+](=O)[O-])cc1O` (some centres not stated) showed an inhibition at 0.1 µM (SMMC-7721 [9]) of 99%.
`CC(C)c1cc2c(cc1[N+](=O)[O-])[C@@]1(C)CCC[C@@](C)(CNC(=O)c3ccccc3)[C@@H]1CC2=O` gave an IC50 (HepG2) of 67.9 µg/mL (≈ 151 µM).
Work on `CC(C)c1ccc2c(c1)C(=O)C[C@H]1[C@](C)(CNC(=O)c3ccccc3)CCC[C@]21C` yielded an IC50 [10] of 11.3 µg/mL (≈ 28 µM), an IC50 [11] of 5.7 µg/mL and a pIC50 (Androgen receptor) of 4.08.
Compound `C=CC1CN2CCC1CC2C(NC(=S)NC[C@]1(C)CCC[C@]2(C)c3ccc(C(C)C)cc3CC[C@@H]12)c1ccnc2ccc(OC)cc12` (some centres not stated) has a pIC50 [11] of 5.68 and a pIC50 (EJ) of 5.68.
For `CC(C)c1ccc2c(c1)CC[C@H]1[C@](C)(C/N=C/c3c(O)ccc4ccccc34)CCC[C@]21C`, the pIC50 [12] was 5.92.
In the case of `CC(C)c1ccc2c(c1)C(=O)C[C@H]1[C@](C)(CNC(=O)c3cc(O)c(O)c(O)c3)CCC[C@]21C`, the IC50 [13] was 2 µg/mL (≈ 4.43 µM) and the “inhibition (INH)” value (superoxide anion radical) was 38.18%.
With `COC(=O)[C@@]1(C)CCC[C@]2(C)c3cc(O)c(C(C)(C)O)cc3CC[C@@H]12` the pIC50 (Leishmania infantum) was 4.85 and the pIC50 (Leishmania braziliensis) was 4.85.
Compound `COC(=O)[C@@]1(C)CCC[C@]2(C)c3cc(O)c(C(C)C)cc3CC[C@@H]12` has a pIC50 (Leishmania infantum) of 4.85 and a pIC50 (Leishmania braziliensis) of 4.85.
Compound `CC(C)c1cc2c(cc1O)[C@@]1(C)CCC[C@](C)(CO)[C@@H]1CC2` has a pIC50 (Leishmania infantum) of 4.85 and a pIC50 (Leishmania braziliensis) of 4.85.
Compound `NCC[C@H](O)C(=O)N[C@@H]1C[C@H](N)[C@@H](O[C@H]2O[C@H](CN)[C@@H](O)[C@H](O)[C@H]2O)[C@H](O)[C@H]1O[C@H]1O[C@H](CO)[C@@H](O)[C@H](N)[C@H]1O` [AMIKACIN] has an MIC (Staphylococcus aureus) of 0.9 µg/mL (≈ 1.54 µM) and an MIC (Bacillus subtilis) of 0.9 µg/mL (≈ 1.54 µM).
With `O=C1O[C@H]([C@@H](O)CO)C(O)=C1O` [ASCORBIC ACID] the IC50 [13] was 236 µg/mL (≈ 1340 µM).
Work on `CC(C)c1ccc2c(c1)CC[C@H]1[C@](C)(C(=O)O)CCC[C@]21C` [DEHYDROABIETIC ACID] yielded an inhibition in vivo at 30 mg/kg (Rattus norvegicus [14]) of 22% and an inhibition in vivo at 100 mg/kg (Mus musculus) of 59%.
With `COc1cc([C@@H]2c3cc4c(cc3[C@@H](O[C@@H]3O[C@@H]5CO[C@@H](C)O[C@H]5[C@H](O)[C@H]3O)[C@H]3COC(=O)[C@H]23)OCO4)cc(OC)c1O` [ETOPOSIDE] the pIC50 [7] was 5.74.
